Common to all, as to test: relative viability (nuclei count vs DMSO), 5 days (fraction); higher = more cells survive
Compound in assay [1]: CC1=CC=C(C=C1)C(=O)CN2C3=C(CCCC3)SC2=N [Pifithrin_alpha] + Cc1nc(Nc2ncc(C(=O)Nc3c(C)cccc3Cl)s2)cc(N2CCN(CCO)CC2)n1 [Dasatinib] (partner 0.075 µM)
The procedure, abridged: (§1)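 Relative viability is defined as nuclei in treated wells over nuclei in vehicle wells. Duplicate plates were run and medians reported. Lung cancer cell lines in 1536-well plates were dosed by pin tool one day after seeding, with one drug or with a fixed anchor-drug dose plus five library-drug doses (not always all listed) in √10 steps, and nuclei were counted after 5 days.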

Compound in the assay “Axitinib + Pemetrexed”: CNC(=O)c1ccccc1Sc1ccc2c(/C=C/c3ccccn3)n[nH]c2c1 [Axitinib] + Nc1nc2[nH]cc(CCc3ccc(C(=O)N[C@@H](CCC(=O)O)C(=O)O)cc3)c2c(=O)[nH]1 [Pemetrexed] (partner 0.2 µM)
The procedure, abridged:
as §1

Compound in the assay “Axitinib + Linsitinib”: CNC(=O)c1ccccc1Sc1ccc2c(/C=C/c3ccccn3)n[nH]c2c1 [Axitinib] + C[C@]1(O)C[C@@H](c2nc(-c3ccc4ccc(-c5ccccc5)nc4c3)c3c(N)nccn32)C1 [Linsitinib] (partner 1 µM)
The procedure, abridged: as §1

Compound in the assay “Bemcentinib + Luminespib”: Nc1nc(Nc2ccc3c(c2)CC[C@@H](N2CCCC2)CC3)nn1-c1cc2c(nn1)-c1ccccc1CCC2 [Bemcentinib] + CCNC(=O)c1noc(-c2cc(C(C)C)c(O)cc2O)c1-c1ccc(CN2CCOCC2)cc1 [Luminespib] (partner 0.01 µM)
The procedure, abridged:
as §1

In the case of NCI-H650, the relative viability in assay [1] (first compound 3.162 µM) turned out to be 0.489; in assay [1] (first compound 10 µM), 0.441; in assay [1] (first compound 31.62 µM) it was 0.415; in assay [1] (first compound 100 µM), 0.388; with Axitinib + Pemetrexed (first compound 0.005 µM), 1.09; with Axitinib + Pemetrexed (first compound 0.01581 µM), 0.808. In addition, the relative viability in the assay with Axitinib + Pemetrexed (first compound 0.05 µM) came out at 1.04; in the assay with Axitinib + Pemetrexed (first compound 0.1581 µM) it was 1.02; in the assay with Axitinib + Pemetrexed (first compound 0.5 µM) it was 0.855; in the assay with Axitinib + Linsitinib (first compound 0.005 µM), 0.969; in the assay with Axitinib + Linsitinib (first compound 0.01581 µM) it was 0.866; with Axitinib + Linsitinib (first compound 0.05 µM), 0.916. Also, the relative viability with Axitinib + Linsitinib (first compound 0.1581 µM) is 0.713; with Axitinib + Linsitinib (first compound 0.5 µM) it was 0.759; in the assay with Bemcentinib + Luminespib (first compound 0.04 µM) it was 0.8; with Bemcentinib + Luminespib (first compound 0.1265 µM) it was 0.963; with Bemcentinib + Luminespib (first compound 0.4 µM), 0.922; with Bemcentinib + Luminespib (first compound 1.265 µM), 0.749. Also, in the assay with Bemcentinib + Luminespib (first compound 4 µM), the relative viability was 0.729.

For the origin of these results see the supplement of paper PMC10307832.
